According to patent US6737383B1, “Herbicidal oxadiazolidines” (priority 1999, dated 2004):

Tests used:
purple nutsedge = experiment: Test B pre/postemergence purple nutsedge; assay type: in vivo, Cyperus rotundus
Procedure, shortened: (§1)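 Test chemicals in a non-phytotoxic solvent mixture with surfactant were sprayed preemergence onto planted seeds and postemergence onto plants 2 to 18 cm tall (1- to 4-leaf stage). After twelve to sixteen days in a greenhouse, injury was visually rated against untreated controls from 0 (no effect) to 10 (complete control).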

corn = experiment: Test B pre/postemergence corn; assay type: in vivo, Zea mays
Procedure, shortened: as §1

pigweed = experiment: Test B pre/postemergence pigweed; assay type: in vivo, Amaranthus retroflexus
Procedure, shortened: as §1

wild oat = experiment: Test B pre/postemergence wild oat; assay type: in vivo, Avena fatua
Procedure, shortened: as §1

rice = experiment: Test B flood test rice; assay type: in vivo, Oryza sativa
Procedure, shortened: (§2)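 Plants were grown to the 2-leaf stage before treatment with test chemical, then held in a greenhouse for twelve to sixteen days. Injury was visually rated against untreated controls on a 0–10 scale, where 0 is no effect and 10 is complete control.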

soybean = experiment: Test B pre/postemergence soybean; assay type: in vivo, Glycine max
Procedure, shortened: as §1

surinam grass = experiment: Test B pre/postemergence surinam grass; assay type: in vivo, Brachiaria decumbens
Procedure, shortened: as §1

velvetleaf = experiment: Test B pre/postemergence velvetleaf; assay type: in vivo, Abutilon theophrasti
Procedure, shortened: as §1

bedstraw = experiment: Test B pre/postemergence bedstraw; assay type: in vivo, Galium aparine
Procedure, shortened: as §1

cocklebur = experiment: Test B pre/postemergence cocklebur; assay type: in vivo, Xanthium strumarium
Procedure, shortened: as §1

giant foxtail = experiment: Test B pre/postemergence giant foxtail; assay type: in vivo, Setaria faberii
Procedure, shortened: as §1

wheat = experiment: Test B pre/postemergence wheat; assay type: in vivo, Triticum aestivum
Procedure, shortened: as §1

rape = experiment: Test B pre/postemergence rape; assay type: in vivo, Brassica napus
Procedure, shortened: as §1

sugar beet = experiment: Test B pre/postemergence sugar beet; assay type: in vivo, Beta vulgaris
Procedure, shortened: as §1

duck salad = experiment: Test B flood test duck salad; assay type: in vivo, Heteranthera limosa
Procedure, shortened: as §2

smallflower flatsedge = experiment: Test B flood test smallflower flatsedge; assay type: in vivo, Cyperus difformis
Procedure, shortened: as §2

[1] = Postemergence, Rate 125 g/ha, scale of 0 to 10 where 0 is no effect and 10 is complete control
[2] = Preemergence, Rate 62 g/ha, scale 0 to 10 (0 no effect, 10 complete control)
[3] = Preemergence, Rate 125 g/ha, 0 is no effect, 10 is complete control
[4] = Preemergence, Rate 250 g/ha, scale 0 to 10, 0 is no effect, 10 is complete control
[5] = Rate 62 g/ha, Postemergence, scale of 0 to 10 where 0 is no effect and 10 is complete control
[6] = Rate 250 g/ha, Postemergence, scale 0 to 10, 0 is no effect, 10 is complete control
[7] = Rate 500 g/ha, Postemergence, scale 0 to 10
[8] = Preemergence, Rate 500 g/ha, scale 0 to 10 (0 no effect, 10 complete control)
[9] = Postemergence (flood test species), Rate 125 g/ha, scale of 0 to 10 where 0 is no effect and 10 is complete control
[10] = Rate 62 g/ha, Postemergence section, flood test species, scale of 0 to 10 where 0 is no effect and 10 is complete control
[11] = Rate 250 g/ha, Postemergence (flood test), scale 0 to 10, 0 is no effect, 10 is complete control
[12] = Rate 500 g/ha, listed under Postemergence (flood test species), scale 0 to 10

## Cc1ccccc1Cn1c(=O)on(C(=O)N(c2ccc(Cl)cc2)C(C)C)c1=O [Compound 136]
Purple nutsedge; [1]
  Nutsedge plant response rating: 0
Purple nutsedge; [2]
  Nutsedge plant response rating: 0
Purple nutsedge; [3]
  Nutsedge plant response rating (0 to 10 scale): 0
Purple nutsedge; [4]
  Nutsedge plant response rating: 0
Purple nutsedge; [5]
  Nutsedge plant response rating: 0
Purple nutsedge; [6]
  Plant response rating, Nutsedge: 0
Purple nutsedge; [7]
  Nutsedge plant response rating: 0
corn; [1]
  Corn plant response rating: 0
corn; [2]
  Corn plant response rating: 0
corn; [3]
  Corn plant response rating (0 to 10 scale): 0
corn; [4]
  Corn plant response rating: 0
corn; [8]
  Corn plant response rating: 0
corn; [5]
  Corn plant response rating: 0
corn; [6]
  Plant response rating, Corn: 0
corn; [7]
  Corn plant response rating: 0
pigweed; [1]
  Redroot pigweed plant response rating: 4
pigweed; [2]
  Redroot pigweed plant response rating: 7
pigweed; [3]
  Redroot pigweed plant response rating (0 to 10 scale): 8
pigweed; [4]
  Redroot pigweed plant response rating: 10
pigweed; [8]
  Redroot pigweed plant response rating: 10
pigweed; [5]
  Redroot pigweed plant response rating: 3
pigweed; [6]
  Plant response rating, Redroot pigweed: 6
pigweed; [7]
  Redroot pigweed plant response rating: 6
Wild oat; [1]
  Wild oats plant response rating: 0
Wild oat; [2]
  Wild oats plant response rating: 0
Wild oat; [3]
  Wild oats plant response rating (0 to 10 scale): 0
Wild oat; [4]
  Wild oats plant response rating: 0
Wild oat; [8]
  Wild oats plant response rating: 3
Wild oat; [5]
  Wild oats plant response rating: 0
Wild oat; [6]
  Plant response rating, Wild oats: 0
Wild oat; [7]
  Wild oats plant response rating: 3
rice; [9]
  Rice plant response rating: 0
rice; [10]
  Rice plant response rating: 0
rice; [11]
  Plant response rating, Rice: 0
rice; [12]
  Rice plant response rating: 0
soybean; [1]
  Soybean plant response rating: 4
soybean; [2]
  Soybean plant response rating: 0
soybean; [3]
  Soybean plant response rating (0 to 10 scale): 0
soybean; [4]
  Soybean plant response rating: 0
soybean; [8]
  Soybean plant response rating: 0
soybean; [5]
  Soybean plant response rating: 3
soybean; [6]
  Plant response rating, Soybean: 4
soybean; [7]
  Soybean plant response rating: 5
Surinam grass; [1]
  B. signalgrass plant response rating: 0
Surinam grass; [2]
  B. signalgrass plant response rating: 3
Surinam grass; [3]
  B. signalgrass plant response rating (0 to 10 scale): 3
Surinam grass; [4]
  B. signalgrass plant response rating: 5
Surinam grass; [8]
  B. signalgrass plant response rating: 5
Surinam grass; [5]
  B. signalgrass plant response rating: 0
Surinam grass; [6]
  Plant response rating, B. signalgrass: 1
Surinam grass; Rate 500 g/ha, Postemergence, scale of 0 to 10 where 0 is no effect and 10 is complete control
  B. signalgrass plant response rating: 3
velvetleaf; [1]
  Velvetleaf plant response rating: 0
velvetleaf; [2]
  Velvetleaf plant response rating: 0
velvetleaf; [3]
  Velvetleaf plant response rating (0 to 10 scale): 0
velvetleaf; [4]
  Velvetleaf plant response rating: 0
velvetleaf; [8]
  Velvetleaf plant response rating: 4
velvetleaf; [5]
  Velvetleaf plant response rating: 0
velvetleaf; [6]
  Plant response rating, Velvetleaf: 0
velvetleaf; [7]
  Velvetleaf plant response rating: 2
bedstraw; [1]
  Bedstraw plant response rating: 5
bedstraw; [3]
  Bedstraw plant response rating (0 to 10 scale): 0
bedstraw; [4]
  Bedstraw plant response rating: 0
bedstraw; [8]
  Bedstraw plant response rating: 0
bedstraw; [5]
  Bedstraw plant response rating: 2
bedstraw; [6]
  Plant response rating, Bedstraw: 8
cocklebur; [1]
  Cocklebur plant response rating: 2
cocklebur; [2]
  Cocklebur plant response rating: 0
cocklebur; [3]
  Cocklebur plant response rating (0 to 10 scale): 0
cocklebur; [4]
  Cocklebur plant response rating: 0
cocklebur; [5]
  Cocklebur plant response rating: 1
cocklebur; [6]
  Plant response rating, Cocklebur: 2
cocklebur; [7]
  Cocklebur plant response rating: 4
Giant foxtail; [1]
  Giant foxtail plant response rating: 4
Giant foxtail; [2]
  Giant foxtail plant response rating: 0
Giant foxtail; [3]
  Giant foxtail plant response rating (0 to 10 scale): 4
Giant foxtail; [4]
  Giant foxtail plant response rating: 10
Giant foxtail; [8]
  Giant foxtail plant response rating: 10
Giant foxtail; [5]
  Giant foxtail plant response rating: 0
Giant foxtail; [6]
  Plant response rating, Giant foxtail: 7
Giant foxtail; [7]
  Giant foxtail plant response rating: 7
wheat; [1]
  Wheat plant response rating: 0
wheat; [2]
  Wheat plant response rating: 0
wheat; [3]
  Wheat plant response rating (0 to 10 scale): 0
wheat; [4]
  Wheat plant response rating: 0
wheat; [8]
  Wheat plant response rating: 0
wheat; [5]
  Wheat plant response rating: 0
wheat; [6]
  Plant response rating, Wheat: 0
wheat; [7]
  Wheat plant response rating: 0
rape; [1]
  Rape plant response rating: 0
rape; [2]
  Rape plant response rating: 0
rape; [3]
  Rape plant response rating (0 to 10 scale): 0
rape; [4]
  Rape plant response rating: 0
rape; [8]
  Rape plant response rating: 0
rape; [5]
  Rape plant response rating: 0
rape; [6]
  Plant response rating, Rape: 2
rape; [7]
  Rape plant response rating: 4
Sugar beet; [1]
  Sugarbeets plant response rating: 4
Sugar beet; [2]
  Sugarbeets plant response rating: 4
Sugar beet; [3]
  Sugarbeets plant response rating (0 to 10 scale): 4
Sugar beet; [4]
  Sugarbeets plant response rating: 8
Sugar beet; [8]
  Sugarbeets plant response rating: 9
Sugar beet; [5]
  Sugarbeets plant response rating: 3
Sugar beet; [6]
  Plant response rating, Sugarbeets: 7
Sugar beet; [7]
  Sugarbeets plant response rating: 8
Duck salad; [9]
  Ducksalad plant response rating: 0
Duck salad; [10]
  Ducksalad plant response rating: 0
Duck salad; [11]
  Plant response rating, Ducksalad: 0
Duck salad; [12]
  Ducksalad plant response rating: 0
Smallflower flatsedge; [9]
  S. Flatsedge plant response rating: 0
Smallflower flatsedge; [10]
  S. Flatsedge plant response rating: 0
Smallflower flatsedge; [11]
  Plant response rating, S. Flatsedge: 0
Smallflower flatsedge; [12]
  S. Flatsedge plant response rating: 0
